Data on eight compounds can be found in patent US20210255193A1, “LYSINE REACTIVE PROBES AND USES THEREOF” (The Scripps Research Institute, priority 2017, published 2021).

Common to all, as to assay: competitive isoTOP-ABPP
Type in all cases: binding

The target in experiment [1] is T1, TPD52L2 Tumor protein D54 (Homo sapiens, UniProt O43399).
T1 construct: isoTOP-ABPP experiments performed in cell lysates (in vitro); endogenous in cells; host or cells: MDA-MB-231 soluble lysate
As to the method: (§1) In vitro covalent fragment treatment for isoTOP-ABPP. All compounds were made up as solutions in DMSO (100×) and were used at a final concentration of 50 μM for activated esters and 100 μM for guanidinylating agents. For each profiling sample, 0.5 ml of lysate was treated with 5 μl of the 100× compound stock solution or 5 μl of DMSO. Samples were treated with activated esters for
(§2) STP-alkyne labeling and click chemistry. For concentration-dependent reactivity measurements by isoTOP-ABPP, 0.5 ml proteome aliquots were treated at ambient temperature with 1 mM STP-alkyne 1 (5 μl of 100 mM stock in DMSO) and 0.1 mM STP alkyne 1 (5 μl of 10 mM stock in DMSO), respectively. For competitive isoTOP-ABPP, after in vitro fragment treatment (detailed above), the samples were labeled for 1 h at ambient temperature with 0.1 mM STP-alkyne 1 (5 μl of 10 mM stock in DMSO). Samples were conjugated by copper-mediated azide-alkyne cycloaddition (CuAAC) to either the light (1 mM STP-alkyne or fragment treated) or heavy (0.1 mM STP-alkyne or DMSO treated) TEV tags (10 μl of 5 mM stocks in DMSO, final concentration=100 μM) using tris(2-carboxyethyl)phosphine hydrochloride
(§3) R value calculation and processing. The ratios of light and heavy MS1 peaks for each unique peptide were quantified with a CIMAGE software using default parameters (3 MS1 acquisitions per peak and signal to noise threshold set to 2.5). For reactivity measurements by isoTOP-ABPP, the R value was calculated from the ratio of MS1 peak areas, comparing the 1 mM STP alkyne sample (light TEV tag) with the 0.1 mM STP alkyne sample (heavy TEV tag). For competitive isoTOP-ABPP, the R value was calculated from the ratio of MS1 peak areas, comparing the DMSO treated sample (heavy TEV tag) with the compound treated sample (light TEV tag). […] Ratios for unique peptide entries are calculated for each experiment; overlapping peptides with the same modified lysine (for example, different charge states, MudPIT chromatographic steps or tryptic termini) are grouped together and the median ratio is reported as the final ratio (R). The peptide ratios reported by CIMAGE were further filtered to ensure the removal or correction of low-quality ratios in each individual data set. The quality filters applied were the following: removal of half tryptic peptides; for ratios with high standard deviations from the median (90% of the median or above) the lowest ratio was taken instead of the median; removal of peptides with R=20 and only a single MS2 event triggered during the elution of the parent ion; manual annotation of all the peptides with ratios of 20, removing any peptides with low quality elution profiles that remained after the previous curation steps (only done for competitive isoTOP-ABPP).
(§4) Cross-data processing for fragment screening. For compound treated samples, biological replicates of the same condition were averaged, if the standard deviation was below 60% of the mean; otherwise, for lysines with at least one R value <4 for a particular compound, the lowest value of the ratio set was taken. For lysines, where all R values for a particular compound were ≥4, the average was reported. For peptides containing several possible modified lysines, the lysine with the highest number of quantification events was used for analysis and the remaining, redundant peptides were reported as alternative modification sites. Peptides included in the aggregate dataset (those used for further bioinformatics and statistical analyses) were required to have been quantified in 2 experiments for competitive isoTOP-ABPP. Lysines were categorized as liganded, if they had at least one ratio R≥4 (hit fragments). For liganded lysines with R=20 for all liganding events, lysines were required to have been quantified with R=20 in two separate experiments and were further required to have been quantified with R<20 in one additional experiment.

Experiment [2] addresses T2, PFKP 6-phosphofructokinase type C (Homo sapiens, UniProt Q01813).
T2 construct: isoTOP-ABPP experiments performed in cell lysates (in vitro); endogenous in cells
T2 sequence (Q01813 1-784): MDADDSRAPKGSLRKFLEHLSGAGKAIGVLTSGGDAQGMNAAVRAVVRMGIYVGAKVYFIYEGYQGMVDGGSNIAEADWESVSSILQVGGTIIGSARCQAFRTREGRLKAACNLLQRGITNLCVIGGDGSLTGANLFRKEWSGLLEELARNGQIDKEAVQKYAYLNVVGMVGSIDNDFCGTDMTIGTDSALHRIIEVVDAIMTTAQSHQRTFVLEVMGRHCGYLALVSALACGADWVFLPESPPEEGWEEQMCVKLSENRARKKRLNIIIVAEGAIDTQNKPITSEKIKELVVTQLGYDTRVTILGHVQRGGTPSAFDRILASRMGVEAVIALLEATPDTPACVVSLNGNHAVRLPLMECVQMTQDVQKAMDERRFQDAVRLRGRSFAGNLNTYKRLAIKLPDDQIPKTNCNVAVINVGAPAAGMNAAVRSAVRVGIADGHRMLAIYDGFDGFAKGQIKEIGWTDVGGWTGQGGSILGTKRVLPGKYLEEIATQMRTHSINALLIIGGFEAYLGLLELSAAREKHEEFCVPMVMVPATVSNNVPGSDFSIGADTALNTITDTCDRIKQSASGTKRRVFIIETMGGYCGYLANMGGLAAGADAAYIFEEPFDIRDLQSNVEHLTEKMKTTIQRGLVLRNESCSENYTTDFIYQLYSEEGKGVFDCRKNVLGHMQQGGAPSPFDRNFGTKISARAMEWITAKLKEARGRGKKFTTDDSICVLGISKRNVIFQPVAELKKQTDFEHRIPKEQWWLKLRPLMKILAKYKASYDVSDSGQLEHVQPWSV
As to the method:
as §1, §2, §3, §4

In experiment [3] the target is T3, CPOX Coproporphyrinogen-III oxidase, mitochondrial (Homo sapiens, UniProt P36551).
T3 construct: isoTOP-ABPP experiments performed in cell lysates (in vitro); endogenous in cells; host or cells: soluble proteome of human cancer cell lines (MDA-MB-231; Ramos and Jurkat also prepared)
T3 sequence (P36551 111-454): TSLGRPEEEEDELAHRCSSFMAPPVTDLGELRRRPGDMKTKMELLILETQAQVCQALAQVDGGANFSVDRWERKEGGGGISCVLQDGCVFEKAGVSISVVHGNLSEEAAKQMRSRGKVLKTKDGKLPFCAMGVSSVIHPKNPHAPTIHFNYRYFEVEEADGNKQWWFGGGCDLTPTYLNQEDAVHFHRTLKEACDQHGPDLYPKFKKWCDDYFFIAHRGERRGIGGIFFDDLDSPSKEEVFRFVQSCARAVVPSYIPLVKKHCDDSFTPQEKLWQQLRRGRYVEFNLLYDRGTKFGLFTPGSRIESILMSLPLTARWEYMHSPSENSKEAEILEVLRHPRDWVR
As to the method:
as §1, §2, §3, §4

SMILES strings stand for the structures.

T1 sequence (O43399 whole entry): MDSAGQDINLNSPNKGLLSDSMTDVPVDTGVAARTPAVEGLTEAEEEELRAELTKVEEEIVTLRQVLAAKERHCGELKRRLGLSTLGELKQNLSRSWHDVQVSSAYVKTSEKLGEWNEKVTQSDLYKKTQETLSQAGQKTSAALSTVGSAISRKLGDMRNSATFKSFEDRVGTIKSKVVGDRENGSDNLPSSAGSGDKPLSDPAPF

Consider `N#Cc1ccc(C(=O)Oc2ccc([N+](=O)[O-])cc2[N+](=O)[O-])cc1` [fragment 44, 2,4-Dinitrophenyl 4-cyanobenzoate], for which, in experiment [1] (50 uM_231_sol_in vitro), the “isoTOP-ABPP ratio, lysine O43399_K90” value stood at 1.1. Further, the “isoTOP-ABPP ratio, lysine Q01813_K688” value in experiment [2] (50 uM_231_sol_in vitro) came out at 4.2. The “isoTOP-ABPP ratio, lysine P36551_K404” value in experiment [3] (50 uM_231_sol_in vitro) turned out to be 1.0.
Take `O=C(CCc1ccc2c(c1)OCO2)Oc1ccc([N+](=O)[O-])cc1[N+](=O)[O-]` [fragment 45, 2,4-Dinitrophenyl 3-(benzo[d][1,3]dioxol-5-yl)propanoate]: in experiment [1] (50 uM_231_sol_in vitro), the “isoTOP-ABPP ratio, lysine O43399_K90” value worked out at 1.5. Also, the “isoTOP-ABPP ratio, lysine Q01813_K688” value in experiment [2] (50 uM_231_sol_in vitro) turned out to be 20.0. The “isoTOP-ABPP ratio, lysine P36551_K404” value in experiment [3] (50 uM_231_sol_in vitro) was determined as 1.2.
On the same counts, the results for `O=C(ON1C(=O)CCC1=O)c1cc(C(F)(F)F)cc(C(F)(F)F)c1` [fragment 46, 3,5-Bis(trifluoromethyl)benzoic acid NHS ester] are 1.4, 1.7 and 1.0.
In the same order, the values of `O=C(Oc1c(F)c(F)c(C(F)(F)F)c(F)c1F)c1cc(C(F)(F)F)cc(C(F)(F)F)c1` [fragment 47, 2,3,5,6-Tetrafluoro-4-(trifluoromethyl)phenyl 3,5-bis(trifluoromethyl)benzoate] are 2.0, 1.0 and 1.5.
Turning to `O=C(Oc1c(F)c(F)cc(F)c1F)c1cc(C(F)(F)F)cc(C(F)(F)F)c1` [fragment 48, 2,3,5,6-Tetrafluorophenyl 3,5-bis(trifluoromethyl)benzoate], the “isoTOP-ABPP ratio, lysine O43399_K90” value in experiment [1] (50 uM_231_sol_in vitro) turned out to be 1.8. Moreover, in experiment [2] (50 uM_231_sol_in vitro), the “isoTOP-ABPP ratio, lysine Q01813_K688” value was determined as 1.4. The “isoTOP-ABPP ratio, lysine P36551_K404” value in experiment [3] (50 uM_231_sol_in vitro) was found to be 1.0.
On to `COC(=O)NC(=NC(=O)OCC1c2ccccc2-c2ccccc21)n1cccn1` [fragment 49, N-Methoxycarbonyl-N′-9-fluorenylmethoxycarbonyl-pyrazole-1-carboxamidine], for which the “isoTOP-ABPP ratio, lysine O43399_K90” value in experiment [1] (100 uM_231_sol_in vitro) is given as 2.9. Further, in experiment [2] (100 uM_231_sol_in vitro), the “isoTOP-ABPP ratio, lysine Q01813_K688” value is on record as 9.6. Moreover, the “isoTOP-ABPP ratio, lysine P36551_K404” value in experiment [3] (100 uM_231_sol_in vitro) came out at 2.5.
Consider `CC(C)(C)OC(=O)N=C(NC(=O)OC(C)(C)C)n1cccn1` [fragment 50, reference compound], for which the “isoTOP-ABPP ratio, lysine O43399_K90” value in experiment [1] (100 uM_231_sol_in vitro) is recorded as 2.2. For the same compound, the “isoTOP-ABPP ratio, lysine Q01813_K688” value in experiment [2] (100 uM_231_sol_in vitro) stood at 18.2. Further, in experiment [3] (100 uM_231_sol_in vitro), the “isoTOP-ABPP ratio, lysine P36551_K404” value is 1.8.
As for `NC(=O)c1cc(C(F)(F)F)cc(C(F)(F)F)c1` [fragment 51, reference compound], the “isoTOP-ABPP ratio, lysine O43399_K90” value in experiment [1] (50 uM_231_sol_in vitro) amounted to 1.0. In addition, in experiment [2] (50 uM_231_sol_in vitro), the “isoTOP-ABPP ratio, lysine Q01813_K688” value turned out to be 0.9. Moreover, the “isoTOP-ABPP ratio, lysine P36551_K404” value in experiment [3] (50 uM_231_sol_in vitro) was found to be 0.9.
